Laboratory results taken from patent US20060211764A1, “Cell activator, process for producing cell activator and apparatus therefor” (priority 2002, published 2006).

Columns and labels:
pancreatic cancer = test: Administration to a human patient, pancreatic cancer; type: in vivo; settings: 30 g/day; in approximately 1 and a half months
Excerpt: In approximately 1 and a half months, the patient recovered.

gastric cancer = test: Administration to human patients, gastric cancer; type: in vivo
Excerpt: Patient, gastric cancer had metastasized in the liver; countless cancer cells metastasized and dispersed in the liver.
Gastric cancer was detected as a result of a detailed examination, extirpated soon after the discovery, cancer as large as a head of a fetus was removed. Scattered additionally in the peritoneal cavity: Life expectancy was 3-6 months.
person, metastasized in the pancreas and peritoneum.

liver cancer = test: Administration to human patients, liver cancer; type: in vivo; settings: male
breast cancer = test: Administration to human patients, breast cancer; type: in vivo; settings: 20 g/day for 210 days
Excerpt: After extirpation, metastasized to the eye.
person, metastasized to the bone marrow.

bladder cancer = test: Administration to human patients, bladder cancer; type: in vivo
[1] = tested on: pulmonary cancer metastasis lymphoma; test: Administration to a human patient, pulmonary cancer metastasis lymphoma; type: in vivo; settings: person; 15 g/day for 180 days
subclavian lymphoma = test: Administration to a human patient, subclavian lymphoma; type: in vivo; settings: female, 50 g/day for 90 days
cervical malign lymphoma = test: Administration to a human patient, cervical malign lymphoma; type: in vivo; settings: person; 20 g/day for 360 days
colon cancer = test: Administration to a human patient, colon cancer; type: in vivo; settings: person
leukemia = test: Administration to human patients, leukemia; type: in vivo; settings: person
infertility = test: Administration to human patients, infertility; type: in vivo
[2] = tested on: diabetes/rheumatism/hypertension; test: Administration to a human patient, diabetes/rheumatism/hypertension; type: in vivo; settings: person; 15 g/day for 30 days, then up to 20 g/day
[3] = tested on: infantile asthma, atopic dermatitis; test: Administration to a child, infantile asthma, atopic dermatitis; type: in vivo, human; settings: CPL solution plus spraying agent, 15 g/day for 40 days, 10 g/day for next 140 days
Description: In addition to the said solution, a spraying agent was used. The said spraying agent was prepared by filling a spraying container with a solution, which was prepared by further diluting by a flux the ointment manufactured by dissolving cyclic polylactic acids in a flux such as propylene glycol, etc. before they solidify, which was described in the <Example of manufacturing> section.

[4] = tested on: bone-thinning disease osteoporosis; test: Administration to a human patient, osteoporosis; type: in vivo; settings: person; 6 g/day for 180 days
[5] = tested on: periodontal disease bacteria; test: Control of proliferation of periodontal disease bacteria
baldness = test: Spray and oral powder, baldness; type: in vivo, human; settings: spray twice a day (10 g in terms of CPL powder) and 10 g/day orally for approximately 50 days
Excerpt: The said spraying agent was sprayed on a bald part of a head.

cancer = test: Several hundreds of patients suffering from cancer taking CPL; type: in vivo, human; settings: 10-20 g/day
pyruvic acid kinase = test: Inhibition of pyruvic acid kinase activity; type: biochemical; settings: enzyme of the anaerobic glycolytic pathway
Excerpt: Morphologically, it causes vacuolation, and the expansion of the cytoplasm of cells, disintegration and aggregation of the nucleus. […] These are considered to inhibit not only the synthesis of ATP but also the actions of mRNA and be involved in the synthesis of RNA and DNA, and the generation of intracellular energy by acting on the metabolism of the intracellular organelle such as rough-surfaced endoplasmic reticulum, smooth-surfaced endoplasmic reticulum, ribosome, Golgi apparatus, etc., and as a result, controlling the metabolism of the cells, influencing the synthesis of proteins/glycoprotein, intracellular lipid metabolism, and movement and transport of ions. […] Morphologically, in the case that cells end up degenerating, the degeneration generally changes first to the nucleus followed by the cytoplasm.

lipid metabolism system = test: Effects of CPL ingestion on lipid metabolism; type: in vivo
constipation = test: Bowel movement and constipation during ingestion; type: in vivo, human; settings: CPL ingestion; laxative discontinued
lung cancer = test: MIRS values in a patient suffering from lung cancer before and after taking CPL; type: in vivo, human; settings: after taking CPL; FIG. 15
Description: In addition, changes in MIRS values in a patient suffering from lung cancer before and after taking CPL.

mastitis = test: Administration to bovines, mastitis; type: in vivo, bovine
Description: If an antibiotic drug is administered as usual, it takes at least one week after CR to make shipment of milk from the bovines, resulting in loss of 70,000-100,000 yen per bovine. […] Thus, the invention can contribute to dairy managerial economies.

ketosis = test: Administration to bovines, ketosis (obese syndrome); type: in vivo, bovine; settings: 100 g/day mesothiol 10 days before delivery, then 100g/day of CPL in combination for 7 days after delivery
Description: For 10 days before the expected date of delivery, 100 g/day of mesothiol was administered in bovines with ketosis.

pneumonia = test: Administration to bovine, pneumonia; type: in vivo; settings: 20 g/day for 1-2 days
bacterial diarrhea = test: Administration to milking bovines, bacterial diarrhea; type: in vivo, bovine
Excerpt: In the milking bovines, a bacterial diarrhea started to spread. Initially, four bovines infected by the bacterial diarrhea one after another. […] The bovines fed as usual even in the condition of diarrhea and no decrease in the amount of milk was observed.

Substance: Cyclic Poly-lactate [CPL]
- outcome of patient with pancreatic cancer considered incurable (pancreatic cancer): recovered
- cancer blocks metastasized in the liver (gastric cancer; male, gastric cancer metastasized in the liver, CPL for 2 weeks): necrotized
- course of terminal inoperable gastric cancer (gastric cancer; person, metastasized in pancreas and peritoneum, 30 g/day for 150 days): progressing satisfactorily
- recurrence after extirpation of gastric cancer (gastric cancer; scattered in peritoneal cavity, life expectancy 3-6 months, 10 g/day for 5 months): no sign of a recurrence
- outcome of liver cancer (liver cancer; 20 g/day for 150 days): cured
- outcome of liver cancer originated from liver cirrhosis (liver cancer; 20 g/day for 210 days): cured
- course of breast cancer metastasized to the eye (breast cancer; after extirpation): satisfactory progress
- tumor marker (breast cancer; person, breast cancer metastasized to bone marrow, decreased from 200): 5
- examination findings and recurrence of bladder cancer (bladder cancer; male, resection performed 5 times, 20-30 g/day for 50 days): no abnormal findings from examinations, nor a recurrence
- course of bladder cancer (bladder cancer; person, 40-50 g/day for 270 days): improved from the terminal stage
- course of pulmonary cancer metastasis lymphoma [1]: satisfactory progress
- CEA (subclavian lymphoma; decreased from 20.4): 5.4
- CA 15 (subclavian lymphoma; decreased from 70): 20.3
- outcome of cervical malign lymphoma (cervical malign lymphoma): cured
- colon tumors of 2 cm in size (Stage 2-3) (colon cancer; 20 g/day for 150 days, in 2 weeks): disappeared
- examination for colon cancer (colon cancer; examination 5 months later): No abnormalities were found
- outcome of leukemia (leukemia; 15-20 g/day for 170 days): cured
- outcome of leukemia (leukemia; 15 g/day for 5 months): cured
- outcome of leukemia (leukemia; 15 g/day for 220 days): cured
- recurrence of leukemia (leukemia; for 2 years onwards): No recurrence
- number of patients who conceived (infertility; 10 patients with infertility, 6-9 g/day): 8
- lower abdominal pain (infertility; person, endometriosis, ovarian cyst, 6 g/day, within the next 2-3 days): ameliorated
- conception (infertility; person, after endometriosis symptoms ameliorated): naturally conceived
- need for dialysis [2]: dialysis was not necessary
- asthmatic seizures [3]: stopped
- eczema on the back and face [3]: disappeared
- itchiness [3]: cured
- bone density [4]: increased
- controlling the proliferation of periodontal disease bacteria [5]: effective
- hair growth on bald part of head (baldness): hair growth is achieved
- findings of ameliorated adverse reactions, macrobiotic effects and suggestion of a cure (cancer): observed in the majority
- activity of pyruvic acid kinase (pyruvic acid kinase): inhibits
- fatty acid composition of triglyceride (lipid metabolism system): changes
- defecation of patients suffering from constipation (constipation): improved defecation
- MIRS values in patient suffering from lung cancer (lung cancer): increased significantly
- response of mastitis (mastitis; oral, 50 g of CPL (powder) dissolved in water): Complete response
- milking from the other normal udders during treatment (mastitis; treatment using CPL alone): available
- level of γGTP (ketosis; 100 in onset): 35
- level of GOT (ketosis; 549 in onset): 83
- symptom of pneumonia (pneumonia): improved
- response of bacterial diarrhea (bacterial diarrhea; 50 g/day, 100 g/day of Neothor in combination in severe cases, in most bovines): complete response
- amount of milk (bacterial diarrhea; bovines with bacterial diarrhea given 50 g/day): no decrease
